Molecular target: T1, FgGcn5 (Fusarium graminearum, UniProt I1R9W6)
T1 construct: gene FGRAMPH1_01T00753
Conditions: inhibitor; 30 ug/ml PCN; recombinant GST-H3 substrate, 5 mM acetyl-CoA, Tris-HCl pH 8.0, 37 C, 45 min

T1 sequence (I1R9W6 1-396): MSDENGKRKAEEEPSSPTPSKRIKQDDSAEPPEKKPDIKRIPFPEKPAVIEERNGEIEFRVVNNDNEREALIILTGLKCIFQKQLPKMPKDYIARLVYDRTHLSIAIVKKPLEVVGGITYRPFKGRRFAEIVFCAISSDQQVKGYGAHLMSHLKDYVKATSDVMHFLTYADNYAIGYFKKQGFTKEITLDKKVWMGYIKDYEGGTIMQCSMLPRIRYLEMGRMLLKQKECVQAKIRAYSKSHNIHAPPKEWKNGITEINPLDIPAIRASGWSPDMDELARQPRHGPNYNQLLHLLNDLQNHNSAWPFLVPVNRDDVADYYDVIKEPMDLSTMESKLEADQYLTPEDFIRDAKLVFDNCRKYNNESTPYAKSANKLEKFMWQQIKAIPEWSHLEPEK

## NC(=O)c1cccc2nc3ccccc3nc12 [PCN, phenazine-1-carboxamide]
  in vitro histone H3 acetylation assay, immunoblot (H3 pan-acetyl and H3K18ac): demonstrating that PCN was able to inhibit the HAT activity of FgGcn5 in vitro

— paper PMC6109063 (Nature Communications, 2018)
